Target: T1, human GHSR1a (Homo sapiens, UniProt Q92847)
T1 construct: expressed in transfected cells; host or cells: HEK293 Tetracycline-Inducible cell line, used as membranes
Assay: Human Ghrelin SPA Binding Assay
Conditions: not given
Text: The SPA format was utilized for high throughput screening of test compounds and filter binding served for more comprehensive binding characterization.
Human Ghrelin SPA Binding Assay

T1 sequence (Q92847 whole entry): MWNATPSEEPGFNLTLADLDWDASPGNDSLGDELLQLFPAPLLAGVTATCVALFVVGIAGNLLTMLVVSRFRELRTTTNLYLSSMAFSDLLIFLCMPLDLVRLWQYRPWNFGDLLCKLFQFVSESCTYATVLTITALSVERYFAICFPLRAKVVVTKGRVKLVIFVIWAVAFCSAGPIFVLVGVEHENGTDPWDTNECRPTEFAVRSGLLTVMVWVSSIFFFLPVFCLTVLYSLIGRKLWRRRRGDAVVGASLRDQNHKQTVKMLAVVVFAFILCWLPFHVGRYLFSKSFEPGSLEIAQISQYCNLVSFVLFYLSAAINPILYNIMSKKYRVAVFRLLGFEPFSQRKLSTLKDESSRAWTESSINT

IC50	Ki	SMILES
34.1 nM		COc1ccc(CC(=O)N2CCC3(CC2)CN(C2CCc4cc(-c5ncc(C)cn5)ccc42)C3)cc1 (racemic) [Example 1E]
	22.8 nM	COc1ccc(CC(=O)N2CCC3(CC2)CN(C2CCc4cc(-c5nccs5)ccc42)C3)nc1 (racemic) [Example 1F]
36.6 nM	29.5 nM	COc1ccc(CC(=O)N2CCC3(CC2)CN(C2CCc4cc(Oc5ccccc5)ccc42)C3)nc1 (racemic) [Example 1I]
6.75 nM		COc1ccc(CC(=O)N2CCC3(CC2)CN(C2CCc4cc(-c5ccnc(C)c5)ccc42)C3)nc1 (racemic) [Example 2B]
21.4 nM		COc1ccc(CC(=O)N2CCC3(CC2)CN(C2CCc4cc(-c5ccc(C)cn5)ccc42)C3)nc1 (racemic) [Example 2D]
35.2 nM	63.6 nM	COc1ccc(CC(=O)N2CCC3(CC2)CN(C2CCc4cc(-c5ncc(OC)cn5)ccc42)C3)nc1 (racemic) [Example 2E]
6.22 nM		COc1ccc(CC(=O)N2CCC3(CC2)CN(C2CCc4cc(-c5cc(C)ccn5)ccc42)C3)nc1 (racemic) [Example 2G]
7.02 nM	6.15 nM	O=C(Cc1ccc(C2CC2)cc1)N1CCC2(CC1)CN(C1CCc3cc(-c4ncccn4)ccc31)C2 (racemic) [Example 5A, 7-[(4-Cyclopropylphenyl)acetyl]-2-(5-pyrimidin-2-yl-2,3-dihydro-1H-inden-1-yl)-2,7-diazaspiro[3.5]nonane]
5.9 nM		O=C(Cc1cc2ccccn2n1)N1CCC2(CC1)CN(C1CCc3cc(-c4ncccn4)ccc31)C2 (racemic) [Example 5H]
8.57 nM	9.26 nM	O=C(Cc1cc2n(n1)CCCC2)N1CCC2(CC1)CN(C1CCc3cc(-c4ncccn4)ccc31)C2 (racemic) [Example 5I]
	4.59 nM	Cc1cn2cc(CC(=O)N3CCC4(CC3)CN(C3CCc5cc(-c6ncccn6)ccc53)C4)nc2s1 (centres unmarked) [Example 1B]
16.4 nM	14.2 nM	O=C(Cc1n[nH]c2ccccc12)N1CCC2(CC1)CN(C1CCc3cc(-c4ncccn4)ccc31)C2 (centres unmarked) [Example 1C]
19.4 nM		COc1ccc(CC(=O)N2CCC3(CC2)CN(C2CCc4cc(-c5ccnc(C)n5)ccc42)C3)cc1 (centres unmarked) [Example 1D]
	3.98 nM	COc1ccc(CC(=O)N2CCC3(CC2)CN(C2CCc4cc(-c5nccs5)ccc42)C3)nc1 (centres unmarked) [Example 1F-1]
7.56 nM	8.67 nM	COc1ccc(CC(=O)N2CCC3(CC2)CN(C2CCc4cc(-c5ncc(C)s5)ccc42)C3)nc1 (centres unmarked) [Example 1G]
11.1 nM	10.4 nM	Cc1nn2cc(CC(=O)N3CCC4(CC3)CN(C3CCc5cc(-n6nccn6)ccc53)C4)nc2s1 (centres unmarked) [Example 1H]
5.25 nM	5.12 nM	COc1ccc(CC(=O)N2CCC3(CC2)CN(C2CCc4cc(-c5nccc(C)n5)ccc42)C3)cc1 (centres unmarked) [Example 1J]
25.9 nM		Cc1ccnc(-c2ccc3c(c2)CCC3N2CC3(CCN(C(=O)Cc4cn5cc(C)sc5n4)CC3)C2)n1 (centres unmarked) [Example 1K]
32.9 nM	28.8 nM	CCc1cc(-c2ccc3c(c2)CC[C@H]3N2CC3(CCN(C(=O)Cc4ccc(OC)cc4C#N)CC3)C2)ncn1 [Example 3AB]
40.5 nM	33.8 nM	COc1ccc(CC(=O)N2CCC3(CC2)CN([C@@H]2CCc4cc(-c5cc(C#N)ncn5)ccc42)C3)nc1 [Example 3AC]
73.2 nM	68.9 nM	COc1ccc(CC(=O)N2CCC3(CC2)CN([C@@H]2CCc4cc(-c5ccncn5)ccc42)C3)nc1 [Example 3AE]

IC50	Ki	SMILES
40.1 nM	33.1 nM	COc1ccc(CC(=O)N2CCC3(CC2)CN([C@@H]2CCc4cc(-c5ncco5)ccc42)C3)nc1 [Example 3AG]
90.2 nM	72.8 nM	O=C(Cc1ccc(C(F)(F)F)cc1)N1CCC2(CC1)CN([C@@H]1CCc3cc(-c4ncccn4)ccc31)C2 [Example 3AH]
293 nM	261 nM	COc1ccc(CC(=O)N2CCC3(CC2)CN([C@@H]2CCc4ccccc42)C3)cc1 [Example 3AJ]
143 nM	122 nM	CCn1ccc(CC(=O)N2CCC3(CC2)CN([C@@H]2CCc4cc(-c5ncccn5)ccc42)C3)n1 [Example 3AS]
229 nM	198 nM	O=C(Cc1cn(-c2ccccc2)cn1)N1CCC2(CC1)CN([C@@H]1CCc3cc(-c4ncccn4)ccc31)C2 [Example 3AV]
949 nM	785 nM	O=C(Cc1ccc(C(F)F)cn1)N1CCC2(CC1)CN([C@@H]1CCc3cc(-c4ncccn4)ccc31)C2 [Example 3AW]
801 nM	691 nM	Cc1cc(CC(=O)N2CCC3(CC2)CN([C@@H]2CCc4cc(-c5ncccn5)ccc42)C3)[nH]n1 [Example 3AX]
495 nM	440 nM	Cc1cc(-c2ccc3c(c2)CC[C@H]3N2CC3(CCN(C(=O)Cc4cn5nccnc5n4)CC3)C2)ncn1 [Example 3AY]
17.4 nM	15.4 nM	N#Cc1cc(-c2ccc3c(c2)CC[C@H]3N2CC3(CCN(C(=O)Cc4ccc(C5CC5)cn4)CC3)C2)ncn1 [Example 3AZ]
52.9 nM	46.5 nM	Cc1ccc(CC(=O)N2CCC3(CC2)CN([C@@H]2CCc4cc(-c5ccn(C)n5)ccc42)C3)nc1 [Example 3J]
99.5 nM	87.1 nM	COc1ccc(CC(=O)N2CCC3(CC2)CN([C@@H]2CCc4cc(-c5ccnc(C)n5)ccc42)C3)nc1 [Example 3K]
30.2 nM	28.1 nM	Cc1nn2cc(CC(=O)N3CCC4(CC3)CN([C@@H]3CCc5cc(-c6ncccn6)ccc53)C4)nc2s1 [Example 3O]
36.3 nM	31.7 nM	COc1ccc(NC(C)=O)c(CC(=O)N2CCC3(CC2)CN([C@@H]2CCc4cc(-c5ncccn5)ccc42)C3)c1 [Example 3P]
26.6 nM	23 nM	O=C(Cc1cn2ccccc2n1)N1CCC2(CC1)CN([C@@H]1CCc3cc(-c4ncccn4)ccc31)C2 [Example 3Q]
25.5 nM	22.2 nM	O=C(Cc1ccc2c(n1)OCCO2)N1CCC2(CC1)CN([C@@H]1CCc3cc(-c4ncccn4)ccc31)C2 [Example 3R]
82.4 nM	73 nM	Cc1ccc(CC(=O)N2CCC3(CC2)CN([C@@H]2CCc4cc(-c5nccc(C)n5)ccc42)C3)nc1 [Example 3T]
20.7 nM	17.4 nM	COc1ccc(CC(=O)N2CCC3(CC2)CN([C@@H]2CCc4cc(-c5cc(OC)ncn5)ccc42)C3)nc1 [Example 3V]
30.7 nM	25.9 nM	Cc1ccnc(-c2ccc3c(c2)CC[C@H]3N2CC3(CCN(C(=O)Cc4cn5nc(C)sc5n4)CC3)C2)n1 [Example 3Y]
9.29 nM	8.02 nM	Cc1ccn2cc(CC(=O)N3CCC4(CC3)CN([C@@H]3CCc5cc(-c6ccc(C(N)=O)cc6)ccc53)C4)nc2c1 [Example 4A, 4-[(1R)-1-{7-[(7-methylimidazo[1,2-a]pyridin-2-yl)acetyl]-2,7-diazaspiro[3.5]non-2-yl}-2,3-dihydro-1H-inden-5-yl]benzamide]
70.5 nM	60.7 nM	COc1ccc(CC(=O)N2CCC3(CC2)CN([C@@H]2CCc4cc(-c5ccc(C#N)nc5)ccc42)C3)nc1 [Example 4B, 5-[(1R)-1-{7-[(5-methoxypyridin-2-yl)acetyl]-2,7-diazaspiro[3.5]non-2-yl}-2,3-dihydro-1H-inden-5-yl]pyridine-2-carbonitrile]

Same assay, conditions: SPA format, [125I] ghrelin displacement, human GHSR1a membranes from HEK293 Tetracycline-Inducible cell line

IC50	SMILES
3.79 nM	Cc1cn2cc(CC(=O)N3CCC4(CC3)CN(C3CCc5cc(-c6ncccn6)ccc53)C4)nc2s1 (centres unmarked) [Example 1B]
5.46 nM	COc1ccc(CC(=O)N2CCC3(CC2)CN(C2CCc4cc(-c5nccs5)ccc42)C3)nc1 (centres unmarked) [Example 1F-1]
